Source: US20250189546A1, “METHODS FOR ANALYZING DRUG MOLECULES IN MAMMALIAN TISSUES” (The Scripps Research Institute, priority 2022, published 2025)
“Also recorded” adds a separate entry of the source. Read-outs that look alike come from different tables or passages of the source.

How the values were obtained:
[1] = humans, cited from earlier work
FAAH [2] = biological target: T1, FAAH (Mus musculus, UniProt O08914); assay: Gel-based CC-ABPP of whole brain lysates; type: in vivo; details: 20 mg/kg
T1 construct: from tissue; host or cells: mouse brain (C57BL6J wild type)
T1 sequence (O08914 1-579): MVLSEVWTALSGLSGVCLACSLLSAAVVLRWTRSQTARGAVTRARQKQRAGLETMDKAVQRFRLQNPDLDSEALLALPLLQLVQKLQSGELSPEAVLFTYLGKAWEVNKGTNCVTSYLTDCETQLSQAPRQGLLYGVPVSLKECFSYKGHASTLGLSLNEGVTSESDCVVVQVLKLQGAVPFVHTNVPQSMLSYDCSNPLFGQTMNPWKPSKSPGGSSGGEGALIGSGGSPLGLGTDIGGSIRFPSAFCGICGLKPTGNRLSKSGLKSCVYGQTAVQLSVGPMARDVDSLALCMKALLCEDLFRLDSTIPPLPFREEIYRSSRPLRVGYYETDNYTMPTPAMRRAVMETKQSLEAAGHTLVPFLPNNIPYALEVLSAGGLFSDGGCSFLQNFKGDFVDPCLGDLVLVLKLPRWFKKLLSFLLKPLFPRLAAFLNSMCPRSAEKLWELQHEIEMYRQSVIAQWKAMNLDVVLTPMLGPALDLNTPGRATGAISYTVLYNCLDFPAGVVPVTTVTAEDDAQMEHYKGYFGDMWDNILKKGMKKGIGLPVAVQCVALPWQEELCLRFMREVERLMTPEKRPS
Procedure: (§1) For in gel ABPP analysis, after anesthetizing, mice were decapitated and target tissues were harvested and flash frozen in liquid N2 without perfusion or fixation. Each mouse hemisphere and liver were washed with ice cold PBS on ice (2×1 mL) to remove excessive blood. Tissues were homogenized in 1 mL PBS and sonicated for 10 min in ice cold water. Tissues were centrifuged (1000 g, 10 min, 4° C.) and supernatant was then centrifuged at high speed (100,000 g, 45 min, 4° C.). Supernatant was discarded and remaining pellets were gently washed with ice cold PBS (2×0.5 mL). Pellets were resuspended by gentle pipetting and protein concentrations were quantified by the Bio-Rad DC Protein Assay Kit. Proteomes were then diluted to […] for immediate use or aliquoted and stored at −80° C.
(§2) In gel click chemistry ABPP assay: Click chemistry labeling of alkyne inhibitors was performed as previously reported (Niphakis et al., ACS Chem Neurosci 3, 418-426, 2012). Click reaction buffer was prepared by mixing CuSO4 (50 mM in H2O, 1.0 μL/reaction), TBTA (1.7 mM in 1:4 DMSO/t-BuOH, 3.0 μL/reaction), freshly prepared TCEP (50 mM in H2O, 1.0 μL/reaction) and 5-TAMRA azide (1.25 mM in DMSO, 1.0 μL/reaction). For every 50 μL tissue proteome ([…]), 6 μL click buffer was added. Reaction mixture was gently mixed and kept in a dark drawer for 1 hour at RT. […]

MAGL = biological target: T2, MAGL (Mus musculus, UniProt O35678); assay: Gel-based CC-ABPP of whole brain lysates; type: in vivo; details: 1 mg/kg
T2 construct: from tissue; host or cells: mouse brain hemisphere, 100,000 g membrane pellet
T2 sequence (O35678 1-303): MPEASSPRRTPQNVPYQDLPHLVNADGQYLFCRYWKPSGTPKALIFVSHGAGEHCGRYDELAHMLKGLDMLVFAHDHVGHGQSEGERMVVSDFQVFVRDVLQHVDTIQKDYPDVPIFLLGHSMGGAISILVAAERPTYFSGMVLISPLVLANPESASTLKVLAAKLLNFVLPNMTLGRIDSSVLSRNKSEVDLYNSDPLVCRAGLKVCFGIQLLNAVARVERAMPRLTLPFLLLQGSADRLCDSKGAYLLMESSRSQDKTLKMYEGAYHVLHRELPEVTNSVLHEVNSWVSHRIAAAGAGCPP
Procedure: as §1, §2

[3] = tested on: monoacylglycerol lipase (MAGL); assay: CATCH subcellular compartment imaging in hippocampus with synapsin and MAP2 immunostaining; type: in vivo, mouse
Description: Because MAGL is restricted in localization to presynaptic axonal terminals, whereas FAAH is expressed in neuronal soma, the inventors sought to determine whether CATCH could detect on-and off-target MJN110-yne binding across subcellular compartments. The inventors focused on the well-characterized CA3 to CA1 projection in the hippocampus as it allowed us to observe both axon terminals and soma in the same field of view.
(§3) CATCH labeling: For 100-micron sections labeling, the full CATCH reaction buffer contains: 5 μM AF647-picolyl azide, 150 μM CuSO4, 300 μM BTTP, 2.5 mM sodium ascorbate, and 10% DMSO in PBS. Tissue sections were incubated in click incubation buffer (without sodium ascorbate) overnight at RT. Tissues were then transferred to newly prepared incubation buffer and 100 mM freshly prepared sodium ascorbate was subsequently added to initiate the reaction. After 1 hour at RT in the dark with minor agitation, the reaction was quenched by addition of 4 mM EDTA in PBS (pH=8.0) and samples were washed 3×10 min with PBST. After removing click reaction cocktail, samples were stained by DAPI (1:3000 dilution in PBS from 10 μM stock) for 15 min at RT and would be ready for RI matching and imaging. They could also undergo further staining for cell type registration. For 500-micron sections, 300 μM CuSO4 and 600 μM BTTP were used for incubation and reaction. To achieve full labeling, tissues were incubated at 37° C. for 2 days, and underwent 4 rounds of 1 h click reaction at RT.
Immunostaining: Samples were incubated with primary antibodies in PBST overnight at 4° C. unless otherwise noted. Samples were then washed with PBST, 3×30 min, RT and transferred to secondary antibodies diluted in PBST. Samples were incubated with secondary antibodies overnight, RT and washed with PBST 3×30 min. For antibody elution, imaged slides were dismounted, and tissues were washed by 8% PBS-SDS (pH=7.0) at 60° C. for 8 hours. Samples were then washed by PBST 3×10 min at RT to remove residual SDS and could undergo the next round of staining.
Subcellular compartment intensity analysis: For MJN110-yne characterization, images were acquired at 5 μm from the tissue surface where the highest immunostaining signal can be observed. Different cellular compartments were identified by applying a threshold in immunostaining signal and mean drug labeling intensity was measured in the selected threshold region. Three random squares were drawn in nucleus in different cells and their average intensity was used as background. The recorded intensity value in soma or axonal terminal was then subtracted by the intensity in the nucleus for background adjustment. Data was then normalized to the average intensity of the control group as indicated in each figure legends.

FAAH [4] = biological target: T1, FAAH; assay: Competitive CATCH: parental PF7845 followed by PF7845-yne probe; type: in vivo
Description: After establishing CATCH's specificity, scalability, compatibility, and resolution, finally, the inventors tested if CATCH can be used to quantitatively resolve dose-dependent target engagement after in vivo drug administration. […] In this competitive CATCH approach, animals are first treated with a dose range of the parental drugs, followed by a single high dose of the alkyne probes. The dose-dependent target engagement by the parental drug can be recorded based on the competitive blockade of signal in an anatomically specific manner (FIG. 8, A).
The inventors treated mice with 0.01-1 mg/kg of parental PF7845 followed by 1 mg/kg PF7845-yne probe to readout the dose-dependent brain targets of PF7845 by competitive CATCH. […] Conversely, the inventors adopted a direct approach to visualize dose-dependent alkyne drug PK properties (FIG. 8, C).
Sample collection: Inhibitors were administered to mice in a vehicle of 10% DMSO, 2% Tween-80 in saline for intraperitoneal (i.p.) injections. After drug injection at designated dose and time, mice were heavily anesthetized with isoflurane and then transcardially perfused with ice cold PBS followed by ice cold 4% PFA in PBS with sucrose. Mouse brains or other peripheral tissues were then dissected out and post fixed in 4% PFA overnight at 4° C. Tissues were washed with PBS, embedded in 2% agarose and sectioned as 100-micron or 500-micron tissue sections by vibratome (Leica VT1000S). Tissue sections were stored in PBS with 0.02% sodium azide at 4° C. for further processing.
as §3

| FAAH target binding by competitive CATCH (FAAH [4]; 0.01 mg/kg PF7845, then 1 mg/kg PF7845-yne) | FAAH inhibition by competitive CATCH (FAAH [4]; 0.05 mg/kg PF7845, then 1 mg/kg PF7845-yne) | Effect of pre-treatment on PF7845-yne-generated CATCH signals across the brain (FAAH [4]; pharmacological blocking experiment) | SMILES | Clinical safety / toxicity [1] | Clinical safety / toxicity ([1]; listed as BIA 10-2474) | Off-target engagement in gel-based CC-ABPP (FAAH [2]) | Target engagement in gel-based CC-ABPP (MAGL) | Subcellular localisation of CATCH signal, low dose ([3]; 1 mg/kg, hippocampus CA1) | Overall fluorescence intensity in hippocampus ([3]; 20 mg/kg vs 1 mg/kg) | Subcellular localisation of CATCH signal, high dose ([3]; 20 mg/kg, hippocampus) | Specificity of CATCH signals ([3]; pretreatment with parent MJN110 and MAGL−/− mice) | FAAH inhibition by competitive CATCH, cortex vs hippocampus (FAAH [4]; 0.02 mg/kg PF7845, then PF7845-yne 1 mg/kg, 1 h, i.p.) | Duration of FAAH blockage to competitive probe binding (FAAH [4]; 24 hours after PF7845 administration) | Effect of pre-treatment on MJN110-yne binding in soma and axon terminals ([3]; PF7845 pre-treatment, then MJN110-yne, hippocampus) |
| --- | --- | --- | --- | --- | --- | --- | --- | --- | --- | --- | --- | --- | --- | --- |
|  |  |  | CN(C(=O)n1cnc(-c2ccc[n+]([O-])c2)c1)C1CCCCC1 [BIA-10-2474] | Unanticipated toxicity | associated with clinical neurological toxicities |  |  |  |  |  |  |  |  |  |
|  |  |  | C#Cc1ccc(C(c2ccc(Cl)cc2)N2CCN(C(=O)ON3C(=O)CCC3=O)CC2)cc1 (stereo not drawn) [MJN110-yne] |  |  | substantial off-target engagement of FAAH | selectively engaged MAGL | binding in presynaptic terminals; also recorded: restricted to synapsin positive axon terminals | overall higher fluorescence intensity | spread to the neuronal soma | confirmed the specificity |  |  |  |
| no target binding was detected | full FAAH inhibition was achieved | completely abolished | O=C(Nc1cccnn1)N1CCC(=Cc2cccc(Oc3ccc(C(F)(F)F)cn3)c2)CC1 [PF7845] | considered a safe FAAH inhibitor |  |  |  |  |  |  |  | Cortical PF7845-yne is fully blocked; also recorded: fully inhibited in the cortex but not in the hippocampus | sustained FAAH blockage to competitive probe binding | significantly suppressed MJN110-yne binding in the soma, but not axon terminals |
